Data published in patent US12668571B2, “Substituted 3-amino-4-methylbenzenesulfonamides as small molecule inhibitors of ubiquitin-specific protease 28” (Dana-Farber Cancer Institute, Inc., priority 2020, dated 2026).

Legend:
USP28 [1] = target: T1, USP28 (Homo sapiens, UniProt Q96RU2); assay: Competitive activity-based protein profiling (target engagement, Ub-VME probe, Western blot); assay type: binding; conditions: K562 cells lysed, treated with compound for 1 h, then incubated with Ub-VME
T1 sequence (Q96RU2 1-1077): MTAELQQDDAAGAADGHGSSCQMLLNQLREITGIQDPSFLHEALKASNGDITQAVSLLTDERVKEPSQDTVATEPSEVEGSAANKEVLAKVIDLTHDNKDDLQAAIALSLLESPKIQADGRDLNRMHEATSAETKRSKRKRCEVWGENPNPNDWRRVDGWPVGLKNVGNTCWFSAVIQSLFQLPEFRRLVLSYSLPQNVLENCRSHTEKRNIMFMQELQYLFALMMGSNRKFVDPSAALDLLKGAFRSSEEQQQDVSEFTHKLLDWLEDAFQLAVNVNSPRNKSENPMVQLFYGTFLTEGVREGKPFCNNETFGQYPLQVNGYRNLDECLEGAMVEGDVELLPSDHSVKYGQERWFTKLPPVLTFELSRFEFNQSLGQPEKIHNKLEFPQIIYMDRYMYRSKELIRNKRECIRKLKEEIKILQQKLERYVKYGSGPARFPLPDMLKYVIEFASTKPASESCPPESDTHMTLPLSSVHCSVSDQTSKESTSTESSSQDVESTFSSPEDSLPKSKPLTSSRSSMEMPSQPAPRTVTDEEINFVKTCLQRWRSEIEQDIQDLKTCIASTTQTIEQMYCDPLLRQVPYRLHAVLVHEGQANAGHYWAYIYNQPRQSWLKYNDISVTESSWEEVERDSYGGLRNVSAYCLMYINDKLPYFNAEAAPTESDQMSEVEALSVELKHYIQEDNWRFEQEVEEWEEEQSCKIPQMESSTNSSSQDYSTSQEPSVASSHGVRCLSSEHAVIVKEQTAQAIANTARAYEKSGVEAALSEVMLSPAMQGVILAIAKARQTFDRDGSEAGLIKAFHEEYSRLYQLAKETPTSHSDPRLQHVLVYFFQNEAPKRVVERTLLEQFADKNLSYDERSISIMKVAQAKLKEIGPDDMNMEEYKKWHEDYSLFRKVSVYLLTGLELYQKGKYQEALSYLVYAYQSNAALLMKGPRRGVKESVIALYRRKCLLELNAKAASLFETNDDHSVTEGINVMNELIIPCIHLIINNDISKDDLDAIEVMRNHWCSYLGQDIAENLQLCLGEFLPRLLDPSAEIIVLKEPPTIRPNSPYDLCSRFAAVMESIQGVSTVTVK
Description: K562 cells were lysed and treated with indicated concentrations of compound 1 for 1 h followed by incubation with Ub-VME. Ub-VME covalently modifies USP28, resulting in higher MW band observed by Western blot.
Cells were pelleted, washed with PBS buffer, lysed on ice (20 mM Tris pH 8, 150 mM NaCl, 1% NP-40, 10% glycerol, 1 mM TCEP, phosphatase inhibitor cocktails (Sigma P5726 and Calbiochem 524624), and protease inhibitors (pepstatin, leupeptin, PMSF, and aprotinin), and clarified by centrifugation. Protein content was quantified by BCA and diluted to 2 mg/mL in lysis buffer. Compounds were added at desired concentrations and incubated at room temperature for […]. Samples were then supplemented with 2 uM […] and incubated at room temperature with shaking for 15 minutes. Reactions were quenched with 4×LDS sample buffer (Thermo Fisher B0007) supplemented with 10% BME, vortexed vigorously, and heated to 95° C. for 5 minutes. Samples were resolved by SDS-PAGE and analyzed by Western blot with the indicated antibodies.

USP28 [2] = target: T1, USP28; assay: Ubiquitin-Rhodamine110 assay; assay type: biochemical; conditions: USP28 at 1 nM, 30 minutes pre-incubation at room temperature, Ubiquitin-Rho110 substrate 125 nM
Description: USP28 (at 1 nM) was pre-incubated with different concentrations of inhibitors or DMSO as a control in 50 mM Tris pH 8, 50 mM NaCl, 0.002% Tween-20, 5 mM DTT. Compounds and protein were incubated for 30 minutes at room temperature prior to the addition of Ubiquitin-Rho110 (Boston Biochem) substrate for a final concentration of 125 nM. The initial rate of the reaction was measured by collecting fluorescence data at one-minute interval over 30-minute period using a Clariostar® fluorescence plate reader at excitation and emission wavelength of 485 nm and 535 nm, respectively. The calculated initial rate values were plotted against inhibitor concentrations to determine IC50s. All the experimental data were plotted using GraphPad Prism®.

IC50 (USP28 [2])	SMILES	labeling of USP28 by covalent Ub-VME probe (Western blot, FIG. 2) (USP28 [1])
< 1 µM	Cc1ccc(S(=O)(=O)N(C)C)cc1NC(=O)Cc1ccc(Cl)c(Cl)c1 [Compound 1]	prevents labeling of USP28 by the covalent Ub-VME probe
1 to 10 µM	Cc1ccc(S(=O)(=O)N(C)C)cc1NC(=O)Cc1ccccc1 [Compound 2]	–
1 to 10 µM	Cc1ccc(S(=O)(=O)N(C)C)cc1NC(=O)Cc1cccc(C(F)(F)F)c1 [Compound 3]	–
10 to 100 µM	Cc1ccc(S(=O)(=O)N(C)C)cc1NC(=O)Cc1ccc([N+](=O)[O-])cc1 [Compound 4]	–
> 100 µM	Cc1ccc(S(=O)(=O)N(C)C)cc1NC(=O)Cc1ccc(O)cc1 [Compound 5]	–
10 to 100 µM	CS(=O)(=O)c1cccc(NC(=O)Cc2ccc(Cl)c(Cl)c2)c1 [Compound 6]	–
> 100 µM	Cc1ccc(S(=O)(=O)N(C)C)cc1NC(=O)CCc1ccccc1 [Compound 7]	–
1 to 10 µM	CCN(CC)S(=O)(=O)c1cccc(NC(=O)Cc2ccc(Cl)c(Cl)c2)c1 [Compound 8]	–
> 100 µM	Cc1ccc(S(=O)(=O)N(C)C)cc1NC(=O)Cc1ccc(-c2ccccc2)cc1 [Compound 9]	–
1 to 10 µM	Cc1ccc(S(=O)(=O)N(C)C)cc1NC(=O)CN1CCN(C)CC1 [Compound 10]	–
< 1 µM	Cc1ccc(S(=O)(=O)N2CCCCC2)cc1NC(=O)Cc1ccc(Cl)c(Cl)c1 [Compound 11]	–
< 1 µM	Cc1ccc(S(=O)(=O)Nc2ccccc2)cc1NC(=O)Cc1ccc(Cl)c(Cl)c1 [Compound 12]	–
10 to 100 µM	CN(C)S(=O)(=O)c1cccc(NC(=O)Cc2ccc(Cl)c(Cl)c2)c1 [Compound 13]	–
< 1 µM	Cc1ccc(S(=O)(=O)NCc2ccccc2)cc1NC(=O)Cc1ccc(Cl)c(Cl)c1 [Compound 14]	–
< 1 µM	Cc1ccc(S(=O)(=O)Nc2ccc(N3CCN(C)CC3)cc2)cc1NC(=O)Cc1ccc(Cl)c(Cl)c1 [Compound 15]	–
< 1 µM	CN(C)S(=O)(=O)c1ccc(Cl)c(NC(=O)Cc2ccc(Cl)c(Cl)c2)c1 [Compound 16]	–
1 to 10 µM	CCc1ccc(S(=O)(=O)N(C)C)cc1NC(=O)Cc1ccc(Cl)c(Cl)c1 [Compound 17]	–
10 to 100 µM	CN(C)S(=O)(=O)c1ccc(OC(F)(F)F)c(NC(=O)Cc2ccc(Cl)c(Cl)c2)c1 [Compound 18]	–
> 100 µM	CN(C)S(=O)(=O)c1ccc(NCc2ccccc2)c(NC(=O)Cc2ccc(Cl)c(Cl)c2)c1 [Compound 19]	–
< 1 µM	Cc1ccc(S(=O)(=O)N(C)C)cc1C(=O)NCc1cccc(Cl)c1 [Compound 20]	–
< 1 µM	Cc1ccc(S(=O)(=O)N(C)C)cc1C(=O)NCc1ccc(Cl)c(Cl)c1 [Compound 21]	–
1 to 10 µM	Cc1ccc(C(=O)NCc2ccccc2)cc1NC(=O)Cc1ccc(Cl)c(Cl)c1 [Compound 22]	–
< 1 µM	Cc1ccc(S(=O)(=O)Nc2ccccc2)cc1NC(=O)Cc1ccc2ccccc2c1 [Compound 23]	–
< 1 µM	Cc1ccc(S(=O)(=O)NCc2ccccc2)cc1NC(=O)c1ccc(Cl)c(Cl)c1 [Compound 24]	–
> 100 µM	CN(C)S(=O)(=O)c1ccc2[nH]c(Cc3ccc(Cl)c(Cl)c3)nc2c1 [Compound 27]	–
1 to 10 µM	Cc1ccc(S(=O)(=O)Nc2ccc(-n3ccnc3)cc2)cc1NC(=O)Cc1ccc(Cl)c(Cl)c1 [Compound 29]	–
